# Experimental data as given in PubChem BioAssay (NCI).
#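 All cell lines were grown in 96-well plates and treated with compound for 48 hours. The concentration for 50% growth inhibition is given as GI50. TGI denotes the concentration required for complete inhibition of growth.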
# Experiments:
# Assay in all cases: inhibition of tumour cell growth, NCI panel, 48 h
# NCI-H460 lung = system: NCI-H460 lung
# A498 renal = system: A498 renal
# BT-549 breast = system: BT-549 breast
# A549 NSCLC = system: A549 NSCLC
# K-562 leukemia = system: K-562 leukemia
# LOX IMVI melanoma = system: LOX IMVI melanoma
# SF-539 CNS = system: SF-539 CNS
# SF-268 CNS = system: SF-268 CNS
# UACC-257 melanoma = system: UACC-257 melanoma
# SK-MEL-5 melanoma = system: SK-MEL-5 melanoma
# HT29 colon = system: HT29 colon
# OVCAR-8 ovarian = system: OVCAR-8 ovarian
# NCI-H226 lung = system: NCI-H226 lung
# KM12 colon = system: KM12 colon
# OVCAR-4 ovarian = system: OVCAR-4 ovarian
# MALME-3M melanoma = system: MALME-3M melanoma
# HCT-15 colon = system: HCT-15 colon
# CAKI-1 renal = system: CAKI-1 renal
# NCI-H522 lung = system: NCI-H522 lung
# SN12C renal = system: SN12C renal
# SK-OV-3 ovarian = system: SK-OV-3 ovarian
# MOLT-4 leukemia = system: MOLT-4 leukemia
# OVCAR-3 ovarian = system: OVCAR-3 ovarian
# 786-0 renal = system: 786-0 renal
# NCI/ADR-RES ovarian = system: NCI/ADR-RES ovarian
# HCC-2998 colon = system: HCC-2998 colon
# NCI-H23 lung = system: NCI-H23 lung
# HL-60(TB) leukemia = system: HL-60(TB) leukemia
# UACC-62 melanoma = system: UACC-62 melanoma
# RPMI-8226 leukemia = system: RPMI-8226 leukemia
# SR leukemia = system: SR leukemia
# SNB-19 CNS = system: SNB-19 CNS
# HCT-116 colon = system: HCT-116 colon
# M14 melanoma = system: M14 melanoma
# SK-MEL-28 melanoma = system: SK-MEL-28 melanoma
# COLO 205 colon = system: COLO 205 colon
# MCF7 breast = system: MCF7 breast
# RXF 393 renal = system: RXF 393 renal
# CCRF-CEM leukemia = system: CCRF-CEM leukemia
# MDA-MB-435 = system: MDA-MB-435
# IGROV1 ovarian = system: IGROV1 ovarian
# UO-31 renal = system: UO-31 renal
# HS 578T breast = system: HS 578T breast
# DU-145 prostate = system: DU-145 prostate
# U251 CNS = system: U251 CNS
# MDA-MB-231 breast = system: MDA-MB-231 breast
# HOP-62 NSCLC = system: HOP-62 NSCLC
# SW-620 colon = system: SW-620 colon
# T-47D breast = system: T-47D breast
# PC-3 prostate = system: PC-3 prostate
# ACHN renal = system: ACHN renal
# SK-MEL-2 melanoma = system: SK-MEL-2 melanoma
# OVCAR-5 ovarian = system: OVCAR-5 ovarian
# TK-10 renal = system: TK-10 renal
compound,measurement,setting,value
CN(C)c1ccc(O)c2c1CC1CC3C(N(C)C)C(=O)C(C(N)=O)=C(O)C3(O)C(=O)C1=C2O (stereo not drawn),GI50,NCI-H460 lung,10.6 µM
same,TGI,NCI-H460 lung,29.6 µM
same,GI50,A498 renal,6.96 µM
same,TGI,A498 renal,35.9 µM
same,GI50,BT-549 breast,13.6 µM
same,TGI,BT-549 breast,45 µM
same,GI50,A549 NSCLC,9.43 µM
same,TGI,A549 NSCLC,59.2 µM
same,GI50,K-562 leukemia,16.8 µM
same,TGI,K-562 leukemia,> 100 µM
same,GI50,LOX IMVI melanoma,6.21 µM
same,TGI,LOX IMVI melanoma,37.3 µM
same,GI50,SF-539 CNS,14.6 µM
same,TGI,SF-539 CNS,35.5 µM
same,GI50,SF-268 CNS,18.9 µM
same,TGI,SF-268 CNS,92.3 µM
same,GI50,UACC-257 melanoma,17 µM
same,TGI,UACC-257 melanoma,52.1 µM
same,GI50,SK-MEL-5 melanoma,12 µM
same,TGI,SK-MEL-5 melanoma,28 µM
same,GI50,HT29 colon,15.4 µM
same,TGI,HT29 colon,42.9 µM
same,GI50,OVCAR-8 ovarian,9.84 µM
same,TGI,OVCAR-8 ovarian,81.7 µM
same,GI50,NCI-H226 lung,20.6 µM
same,TGI,NCI-H226 lung,> 100 µM
same,GI50,KM12 colon,13.1 µM
same,TGI,KM12 colon,32.2 µM
same,GI50,OVCAR-4 ovarian,24.2 µM
same,TGI,OVCAR-4 ovarian,> 100 µM
same,GI50,MALME-3M melanoma,16.3 µM
same,TGI,MALME-3M melanoma,41.7 µM
same,GI50,HCT-15 colon,5.59 µM
same,TGI,HCT-15 colon,> 100 µM
same,GI50,CAKI-1 renal,5.74 µM
same,TGI,CAKI-1 renal,91.4 µM
same,GI50,NCI-H522 lung,13.6 µM
same,TGI,NCI-H522 lung,46 µM
same,GI50,SN12C renal,18.1 µM
same,TGI,SN12C renal,89.9 µM
same,GI50,SK-OV-3 ovarian,14.6 µM
same,TGI,SK-OV-3 ovarian,85.4 µM
same,GI50,MOLT-4 leukemia,22.6 µM
same,TGI,MOLT-4 leukemia,74.1 µM
same,GI50,OVCAR-3 ovarian,12.8 µM
same,TGI,OVCAR-3 ovarian,39 µM
same,GI50,786-0 renal,11.5 µM
same,TGI,786-0 renal,39.7 µM
same,GI50,NCI/ADR-RES ovarian,17.3 µM
same,TGI,NCI/ADR-RES ovarian,73.6 µM
same,GI50,HCC-2998 colon,11.9 µM
same,TGI,HCC-2998 colon,39.1 µM
same,GI50,NCI-H23 lung,15.2 µM
same,TGI,NCI-H23 lung,56 µM
same,GI50,HL-60(TB) leukemia,12.7 µM
same,TGI,HL-60(TB) leukemia,48.9 µM
same,GI50,UACC-62 melanoma,9.18 µM
same,TGI,UACC-62 melanoma,22 µM
same,GI50,RPMI-8226 leukemia,5.86 µM
same,TGI,RPMI-8226 leukemia,26.8 µM
same,GI50,SR leukemia,15.7 µM
same,TGI,SR leukemia,> 100 µM
same,GI50,SNB-19 CNS,18.8 µM
same,TGI,SNB-19 CNS,> 100 µM
same,GI50,HCT-116 colon,11.6 µM
same,TGI,HCT-116 colon,> 100 µM
same,GI50,M14 melanoma,11.2 µM
same,TGI,M14 melanoma,> 100 µM
same,GI50,SK-MEL-28 melanoma,22.1 µM
same,TGI,SK-MEL-28 melanoma,59.1 µM
same,GI50,COLO 205 colon,13.7 µM
same,TGI,COLO 205 colon,27 µM
same,GI50,MCF7 breast,20.2 µM
same,TGI,MCF7 breast,> 100 µM
same,GI50,RXF 393 renal,4.84 µM
same,TGI,RXF 393 renal,21.6 µM
same,GI50,CCRF-CEM leukemia,19.5 µM
same,TGI,CCRF-CEM leukemia,> 100 µM
same,GI50,MDA-MB-435,17.9 µM
same,TGI,MDA-MB-435,> 100 µM
same,GI50,IGROV1 ovarian,5.78 µM
same,TGI,IGROV1 ovarian,24.2 µM
same,GI50,UO-31 renal,7.47 µM
same,TGI,UO-31 renal,73 µM
same,GI50,HS 578T breast,14.4 µM
same,TGI,HS 578T breast,59.4 µM
same,GI50,DU-145 prostate,13.1 µM
same,TGI,DU-145 prostate,59.1 µM
same,GI50,U251 CNS,6.84 µM
same,TGI,U251 CNS,31.6 µM
same,GI50,MDA-MB-231 breast,19.1 µM
same,TGI,MDA-MB-231 breast,47 µM
same,GI50,HOP-62 NSCLC,19.1 µM
same,TGI,HOP-62 NSCLC,62.9 µM
same,GI50,SW-620 colon,15.3 µM
same,TGI,SW-620 colon,> 100 µM
same,GI50,T-47D breast,27.7 µM
same,TGI,T-47D breast,> 100 µM
same,GI50,PC-3 prostate,12.6 µM
same,TGI,PC-3 prostate,48.7 µM
same,GI50,ACHN renal,8.4 µM
same,TGI,ACHN renal,> 100 µM
same,GI50,SK-MEL-2 melanoma,5.66 µM
same,TGI,SK-MEL-2 melanoma,22.9 µM
same,GI50,OVCAR-5 ovarian,15.6 µM
same,TGI,OVCAR-5 ovarian,> 100 µM
same,GI50,TK-10 renal,5.66 µM
same,TGI,TK-10 renal,35.5 µM
